{"source": "patent US20250320523A1", "about": "“PHAGOCYTOSIS ASSAY COMBINING A SYNTHETIC CELL DEATH SWITCH AND A PHAGOCYTOSIS REPORTER SYSTEM” (Hoffmann-La Roche Inc., priority 2022, published 2025)", "key": {"[1]": {"system": "phagocytosis by iPSC-derived microglia", "assay": "2D phagocytosis of apoptotic H4-iCaspase-SEP-mCherry cells by iPSC-derived microglia (Incucyte imaging)", "format": "cell-based, human", "conditions": "1 uM Cytochalasin D added 30 min before imaging; apoptosis induced with 10 nM AP20187", "procedure": "H4 cells were transduced with a lentiviral vector containing iCaspase-SEP-mCherry, single-cell sorted for SEP and mCherry double-positive cells and expanded in 1 μg/ml Puromycin-containing media to select for stably transduced cells. HMC3 or iPSC-derived microglia (Reich, M et al. Alzheimer's Risk Gene TREM2 Determines Functional Properties of New Type of Human iPSC-Derived Microglia. 2021; 11:617860) were seeded in a 96-well imaging plate […]. To visualize microglial morphology during the phagocytosis assay, cells were stained with a far-red viability dye (eBioscience). H4-iCaspase-SEP-mCherry cells were added the next day and left to attach for 3 h. […] Apoptosis was induced at to by adding 10 nM AP20187 to the media, and time-lapse imaging was immediately started on an inverted fluorescence microscope (Leica) or incucyte (Sartorius), 10× objective, 1 image every 10 minutes for 8 hours or more.\nThe number of phagocytosed cells per area was determined using the incucyte software for automated image quantification, by 1) segmenting individual cells, 2) identifying all H4-iCaspase-SEP-mCherry cells positive for mCherry (red fluorescence) and 3) from those cells, identifying the SEP (green fluorescence) negative cells as phagocytosed cells. […]"}, "[2]": {"system": "efferocytosis by THP-1 macrophages", "assay": "Efferocytosis of Jurkat-iCaspase-SEP-mCherry cells by THP-1 macrophages, flow cytometry", "format": "cell-based", "conditions": "Jurkat cells pre-treated, then 10 nM AP20187, incubated with THP-1 macrophages", "procedure": "Jurkat cells were transduced with a lentiviral vector containing iCaspase-SEP-mCherry, FACS sorted for SEP- and mCherry-expression and expanded in 1 ug/ml Puromycin-containing media to select for stably transduced cells. For pre-treatments, the Jurkat cells were incubated with GAS6, an efferocytosis enhancer, or Cytochalasin D, an efferocytosis inhibitor, then exposed to 10 nM AP20187 and incubated with THP-1 macrophages. As a control, Jurkat cells were treated with Staurosporin and labeled with pHrodo (red pH-sensitive fluorophore). Efferocytosis was quantified using flow cytometry, by gating for mCherry-positive and SEP-negative cells (apoptotic cells taken up by THP1), and for pHrodo-high cells in the control samples."}, "[3]": {"system": "HEK293 cells transfected with iCaspase9", "assay": "Apoptosis induction in iCaspase9-transfected HEK293 cells, AnnexinV/viability dye flow cytometry", "format": "cell-based", "procedure": "HEK293 cells were transfected with 2 μg of iCaspase9 construct by nucleofection (Amaxa 4D nucleofector by Lonza, program CM-130) and plated in a 24-well plate. The following day, 100 nM AP20187 was added to the cells, and analyzed 1 h, 2 h or 3 h later. For the control, the cells were incubated with […] Staurosporine for 3 h. For the analysis, the cells were harvested and labeled with AnnexinV-BV421 and viability dye APCeF780 and analyzed by flow cytometry. Apoptotic cells were qualified as AnnexinV-positive and viability dye-negative."}, "[4]": {"system": "H4-iCaspase-SEP-mCherry cells in blood-brain barrier spheroids", "assay": "Phagocytosis assay in 3D BBB spheroids (H4-iCaspase-SEP-mCherry and HMC3 microglia)", "format": "cell-based, human", "conditions": "100 nM AP20187, day 2, imaged 8 hours", "procedure": "H4 cells were transduced with a lentiviral vector containing iCaspase-SEP-mCherry, single-cell sorted for SEP- and mCherry double-positive cells and expanded in 1 μg/ml Puromycin-containing media to select for stably transduced cells. H4-iCaspase-SEP-mCherry and HMC3 microglia were co-seeded with primary human brain endothelial cells, pericytes and astrocytes (Sciencell) to form blood-brain barrier (BBB) spheroids as described by Simonneau, C et al. Investigating receptor-mediated antibody transcytosis using blood-brain barrier organoid arrays. Fluids Barriers CNS. 2021; 18 (1): 43. Briefly, the cells were combined at a 1:1:1:1:1 ratio and seeded into a glass-bottom GRI3D microwell plate (SUN Biosciences). After 2 days of culture in EGM2 medium (Lonza) with astrocyte growth supplement (Sciencell), a timelapse experiment was performed as described above (for FIG. 4): Apoptosis was induced at t0 by adding 100 nM AP20187 to the media, and time-lapse imaging was immediately started on an inverted fluorescence microscope (Leica) using autofocus, 10× objective, 1 image every 10 minutes for 8 hours or more."}, "[5]": {"system": "H4-iCaspase-SEP-mCherry cells in neurovascular unit model", "assay": "Phagocytosis assay in 3D neurovascular unit model in microfluidic chip", "format": "cell-based, human", "conditions": "10 nM AP20187, 3D matrix of microfluidic chip, after 7 days culture", "procedure": "H4 cells were transduced with a lentiviral vector containing iCaspase-SEP-mCherry, single-cell sorted for SEP- and mCherry double positive cells and expanded in 1 μg/ml Puromycin-containing media to select for stably transduced cells. H4-iCaspase-SEP-mCherry and HMC3 microglia were co-seeded with primary human brain endothelial cells, pericytes and astrocytes (Sciencell) at the ratio 1:1:4:0.5:1 and left to self-assemble to neurovascular units inside a fibrin gel matrix in a microfluidic chip (AIM Biotech). The cells were seeded into the microfluidic chips as described in Campisi, M et al.3D Self-Organized Human Blood-Brain Barrier in a Microfluidic Chip. Methods Mol Biol. 2021; 2258:205-219, and the vascular networks were grown over 7 days in EGM2 medium (Lonza) with astrocyte growth supplement (Sciencell). Apoptosis was induced at t0 by adding 10 nM AP20187 to the media, the chips were then fixed in 4% PFA after 30 minutes or 2 h, counterstained with DAPI and imaged on an inverted fluorescence microscope."}}, "data": [{"molecule": "C=C1[C@@H](C)[C@H]2[C@H](Cc3ccccc3)NC(=O)[C@]23[C@H](OC(C)=O)/C=C/[C@@](C)(O)C(=O)[C@@H](C)C/C=C/[C@H]3[C@@H]1O", "note": "[Cytochalasin D]", "values": [{"measurement": "onset and total amount of phagocytosed apoptotic cells", "setting": "[1]", "result": "reduces both the onset and total amount"}, {"measurement": "uptake of apoptotic cells by macrophages", "setting": "[2]", "result": "lowest uptake"}]}, {"molecule": "CC[C@H](C(=O)N1CCCC[C@H]1C(=O)O[C@H](CCc1ccc(OC)c(OC)c1)c1cccc(OCC(=O)NCC(CNC(=O)COc2cccc([C@@H](CCc3ccc(OC)c(OC)c3)OC(=O)[C@@H]3CCCCN3C(=O)[C@@H](CC)c3cc(OC)c(OC)c(OC)c3)c2)CN(C)C)c1)c1cc(OC)c(OC)c(OC)c1", "note": "[AP20187]", "values": [{"measurement": "apoptotic cells (AnnexinV-positive and viability dye-negative)", "setting": "[3]; 100 nM AP20187, after 1 h, iCaspase9 HEK293 cells", "result": 88, "unit": "%"}, {"measurement": "SEP signal of spheroids (loss indicates phagocytosis)", "setting": "[4]", "result": "gradually lost SEP signal"}, {"measurement": "time to efficient induction of apoptosis in transduced cells", "setting": "[5]", "result": "≤ 30", "unit": "min"}]}, {"molecule": "CN[C@@H]1C[C@H]2O[C@@](C)([C@@H]1OC)n1c3ccccc3c3c4c(c5c6ccccc6n2c5c31)C(=O)NC4", "note": "[Staurosporine]", "values": [{"measurement": "apoptotic cells (AnnexinV-positive and viability dye-negative)", "setting": "[3]; Staurosporine, after 3 h", "result": 36, "unit": "%"}]}, {"molecule": "GAS6: an efferocytosis enhancer (protein, UniProt Q14393 31-678, looked up) Growth arrest-specific …: ALLPAREATQFLRPRQRRAFQVFEEAKQGHLERECVEELCSREEAREVFENDPETDYFYPRYLDCINKYGSPYTKNSGFATCVQNLPDQCTPNPCDRKGTQACQDLMGNFFCLCKAGWGGRLCDKDVNECSQENGGCLQICHNKPGSFHCSCHSGFELSSDGRTCQDIDECADSEACGEARCKNLPGSYSCLCDEGFAYSSQEKACRDVDECLQGRCEQVCVNSPGSYTCHCDGRGGLKLSQDMDTCEDILPCVPFSVAKSVKSLYLGRMFSGTPVIRLRFKRLQPTRLVAEFDFRTFDPEGILLFAGGHQDSTWIVLALRAGRLELQLRYNGVGRVTSSGPVINHGMWQTISVEELARNLVIKVNRDAVMKIAVAGDLFQPERGLYHLNLTVGGIPFHEKDLVQPINPRLDGCMRSWNWLNGEDTTIQETVKVNTRMQCFSVTERGSFYPGSGFAFYSLDYMRTPLDVGTESTWEVEVVAHIRPAADTGVLFALWAPDLRAVPLSVALVDYHSTKKLKKQLVVLAVEHTALALMEIKVCDGQEHVVTVSLRDGEATLEVDGTRGQSEVSAAQLQERLAVLERHLRSPVLTFAGGLPDVPVTSAPVTAFYRGCMTLEVNRRLLDLDEAAYKHSDITAHSCPPVEPAAA", "values": [{"measurement": "uptake of apoptotic cells by macrophages", "setting": "[2]", "result": "highest uptake"}]}]}
